According to DBAASP:
Converted amounts (≈) assume the structure as drawn. “And” between values parts separate entries of the source, which are not always exact repeats. Equal entries are not always repeated. One block for each molecule: values may come before it.

Tests used:
Experiment in all cases: ≥ marks a high value that may be exact or a test limit, other limits are often not marked, values filed in µg/mL are converted to µM
[1] = test system: Escherichia coli E423-17
[2] = test system: Escherichia coli CGMCC 1.8732
[3] = test system: Staphylococcus aureus CGMCC 1.8721
[4] = test system: Staphylococcus epidermidis 1457
[5] = test system: Enterococcus faecium ATCC 51559
[6] = test system: Staphylococcus aureus USA 300
[7] = test system: Escherichia coli ATCC 25922
[8] = test system: Klebsiella pneumoniae CGMCC 1.1736
[9] = test system: Klebsiella pneumoniae E406-17
[10] = test system: Klebsiella pneumoniae ATCC 13883
[11] = test system: Escherichia coli K-12
[12] = test system: Pseudomonas aeruginosa E411-17
[13] = test system: Pseudomonas aeruginosa PAO1
[14] = test system: Staphylococcus epidermidis CGMCC 1.4260
[15] = test system: Pseudomonas aeruginosa CGMCC 1.2421
[16] = test system: Enterococcus faecium V284-17
[17] = test system: Staphylococcus aureus UAMS-1
[18] = test system: Acinetobacter baumannii B28-16
[19] = test system: Staphylococcus aureus CICC 10384
[20] = test system: Listeria innocua CICC 10417
[21] = test system: Microsporum canis
[22] = test system: Staphylococcus simulans
[23] = test system: Staphylococcus pseudintermedius MW767056
[24] = test system: Enterobacter cloacae CICC 21539
[25] = test system: Bacillus subtilis CICC 10034
[26] = test system: Saccharomyces cerevisiae CICC 1002
[27] = test system: Serratia marcescens ATCC 4112
[28] = test system: Aspergillus niger CICC 2124
[29] = test system: Staphylococcus cohnii MW767053
[30] = test system: Staphylococcus haemolyticus
[31] = test system: Salmonella enterica subsp. enterica serovar Paratyphi B CICC 10437
[32] = test system: Microsporum canis MW768151
[33] = test system: Staphylococcus aureus CICC 10306
[34] = test system: Candida albicans CICC 1965
[35] = test system: Escherichia coli CICC 10293
[36] = test system: Trichophyton mentagrophytes
[37] = test system: Staphylococcus pseudintermedius
[38] = test system: Staphylococcus sciuri
[39] = test system: Proteus mirabilis
[40] = test system: Pseudomonas aeruginosa CICC 21636
[41] = test system: Acinetobacter baumannii Q13-0717
[42] = test system: Staphylococcus aureus NCTC 12493
[43] = test system: Campylobacter jejuni NCTC 11351
[44] = test system: Klebsiella pneumoniae ATCC 700603
[45] = test system: Escherichia coli
[46] = test system: Klebsiella pneumoniae Q14-0095
[47] = test system: Pseudomonas aeruginosa Q14-0208
[48] = test system: Acinetobacter baumannii Q12-0809
[49] = test system: Staphylococcus aureus ATCC 29213
[50] = test system: Staphylococcus aureus Q14-0320
[51] = test system: Klebsiella pneumoniae NCTC 13442
[52] = test system: Pseudomonas aeruginosa ATCC 27853
[53] = test system: Pseudomonas aeruginosa
[54] = test system: Streptococcus mutans UA159
[55] = test system: Streptococcus gordonii ATCC 10558
[56] = test system: Streptococcus sanguinis ATCC 49295
[57] = test system: Streptococcus mutans GS-5

MIC [1]: 16 µM (≈ 33.6 µg/mL)
MIC [2]: 6.25 µM (≈ 13.1 µg/mL)
MIC [3]: 6.25 µM (≈ 13.1 µg/mL)
MIC [4]: 1.6 µM (≈ 3.36 µg/mL)
MIC [5]: 6.25 µM (≈ 13.1 µg/mL)
MIC [6]: 7.5 µM and 3.1 µM and 7 µM
MIC [7]: 4.4 µM (≈ 9.25 µg/mL)
MIC [8]: 6.25 µM (≈ 13.1 µg/mL)
MIC [9]: ≥ 32 µM
MIC [10]: 3.1 µM (≈ 6.51 µg/mL)
MIC [11]: 7.5 µM and 14 µM
MIC [12]: 16 µM (≈ 33.6 µg/mL)
MIC [13]: 25 µM (≈ 52.5 µg/mL)
MIC [14]: 3.12 µM (≈ 6.57 µg/mL)
MIC [15]: 6.25 µM (≈ 13.1 µg/mL)
MIC [16]: 2 µM (≈ 4.2 µg/mL)
MIC [17]: 7 µM and 3.1 µM
MIC [18]: 1.6 µM and 4 µM
SMILES: CC[C@H](C)[C@H](NC(=O)[C@H](CCCNC(=N)N)NC(=O)[C@H](CCC(N)=O)NC(=O)[C@@H](NC(=O)[C@@H](NC(=O)[C@H](CCCNC(=N)N)NC(=O)[C@H](CCCCN)NC(=O)[C@H](Cc1ccccc1)NC(=O)CN)[C@@H](C)CC)C(C)C)C(=O)N[C@@H](CCCCN)C(=O)N[C@@H](CC(=O)O)C(=O)N[C@@H](Cc1ccccc1)C(=O)N[C@@H](CC(C)C)C(=O)N[C@@H](CCCNC(=N)N)C(=O)N[C@@H](CC(N)=O)C(=O)N[C@@H](CC(C)C)C(=O)N[C@H](C(N)=O)C(C)C [GFKRIVQRIKDFLRNLV]

MIC [19]: 14.1 µM (≈ 16 µg/mL)
MIC [20]: 28.2 µM (≈ 32 µg/mL)
MIC [21]: 0.624 µM (≈ 0.707 µg/mL)
MIC [22]: ≥ 226 µM
MIC [23]: 28.2 µM (≈ 32 µg/mL)
MIC [24]: 14.1 µM (≈ 16 µg/mL)
MIC [25]: 28.2 µM (≈ 32 µg/mL)
MIC [26]: ≥ 56.5 µM
MIC [27]: 7.06 µM (≈ 8 µg/mL)
MIC [28]: ≥ 56.5 µM
MIC [29]: ≥ 56.5 µM
MIC [31]: 28.2 µM (≈ 32 µg/mL)
MIC [32]: 0.882 µM (≈ 1 µg/mL)
MIC [33]: 14.1 µM (≈ 16 µg/mL)
MIC [34]: 28.2 µM (≈ 32 µg/mL)
MIC [35]: 14.1 µM (≈ 16 µg/mL)
MIC [36]: 0.882 µM (≈ 1 µg/mL)
MIC [37]: ≥ 56.5 µM
MIC [38]: ≥ 226 µM
MIC [39]: ≥ 226 µM
MIC [40]: 7.06 µM (≈ 8 µg/mL)
SMILES: CC[C@H](C)[C@H](NC(=O)[C@@H](NC(=O)[C@H](CO)NC(=O)[C@H](Cc1ccccc1)NC(=O)[C@H](CC(C)C)NC(=O)[C@H](CCCN=C(N)N)NC(=O)[C@@H](NC(=O)[C@H](CC(C)C)NC(=O)CN)[C@@H](C)O)C(C)C)C(=O)N[C@@H](CCCCN)C(=O)O [GLTRLFSVIK]
MIC [30]: ≥ 226 µM

MIC [41]: ≥ 82.8 µM
MIC [42]: ≥ 82.8 µM
MIC [43]: ≥ 82.8 µM
MIC [44]: > 82.8 µM
MIC [45]: 82.8 µM (≈ 128 µg/mL)
MIC [46]: ≥ 82.8 µM
MIC [47]: ≥ 82.8 µM
MIC [48]: ≥ 82.8 µM
MIC [49]: > 82.8 µM
MIC [50]: ≥ 82.8 µM
MIC [51]: ≥ 82.8 µM
MIC [52]: 82.8 µM (≈ 128 µg/mL)
MIC [53]: > 331 µM
SMILES: C[C@H](NC(=O)[C@H](CCCN=C(N)N)NC(=O)[C@H](Cc1ccc(O)cc1)NC(=O)[C@H](Cc1cnc[nH]1)NC(=O)[C@H](Cc1c[nH]c2ccccc12)NC(=O)[C@H](CCCN=C(N)N)NC(=O)[C@H](Cc1c[nH]c2ccccc12)NC(=O)[C@H](C)NC(=O)[C@@H](NC(=O)CN)[C@@H](C)O)C(=O)N[C@@H](CCCN=C(N)N)C(=O)N[C@@H](CO)C(=O)O [GTAWRWHYRARS]

MIC [54]: 3.82 µM (≈ 10.7 µg/mL)
MIC [55]: 17.8 µM (≈ 49.8 µg/mL)
MIC [56]: ≥ 35.7 µM
MIC [57]: 4.46 µM (≈ 12.4 µg/mL)
SMILES: CC(C)C[C@H](NC(=O)[C@H](CCCN=C(N)N)NC(=O)[C@H](Cc1ccccc1)NC(=O)[C@H](Cc1ccccc1)NC(=O)[C@@H](N)[C@@H](C)O)C(=O)N[C@@H](Cc1ccccc1)C(=O)N[C@@H](CC(N)=O)C(=O)N[C@@H](CCCN=C(N)N)C(=O)N[C@@H](CO)C(=O)N[C@@H](Cc1ccccc1)C(=O)N[C@H](C(=O)NCC(=O)N[C@@H](CCCN=C(N)N)C(=O)N[C@@H](CCCN=C(N)N)C(=O)N[C@@H](CCCN=C(N)N)C(=O)N[C@@H](CCCN=C(N)N)C(=O)N[C@@H](CO)C(=O)N[C@H](C(=O)N[C@@H](CCC(N)=O)C(=O)N[C@@H](Cc1c[nH]c2ccccc12)C(=O)N[C@@H](CS)C(=O)N[C@@H](C)C(=O)O)C(C)C)[C@@H](C)O [TFFRLFNRSFTGRRRRSVQWCA]
